{"source": "patent US20100197584A1", "about": "“USE OF CURCUMIN TO BLOCK BRAIN TUMOR FORMATION IN MICE” (Research Foundations of the City University of- New York, priority 2007, published 2010)", "key": {"[1]": {"tested_on": "B16F10 mouse melanoma cells", "experiment": "Tumor formation in peripheral tissue (B16F10 cells injected into the neck)", "format": "in vivo, C57BL mice", "procedure": "Generation of Tumors. C57BL mice were given food and water ad libitum and subjected to 12 hour dark/12 hour light cycles. To generate tumors in the peripheral tissue, B16F10 mouse melanoma cells (10^4 cells in 10 μl PBS) were injected into the necks of male and female C57BL mice. Curcumin Treatment. The control mice received, aseptically, the carrier (3% DMSO in 200 μl PBS) daily through the tail vein after placing the mouse in a restraining cage without anesthetics. Other mice similarly received […] in 200 μl of PBS containing 3% DMSO daily through the tail vein."}, "cyclin D1": {"tested_on": "cyclin D1", "experiment": "Western blot of B16F10 cells, cyclin D1", "format": "cell-based, mouse", "conditions": "50 μM", "procedure": "(§1) B16F10 cells were cultured in 10-cm plates and then treated in duplicate with carrier or curcumin (50 μM). Following treatment for appropriate time periods, the cells were washed with PBS, lysed in RIPA buffer (PBS containing 1% Nonidet P40, 0.5% sodium deoxycholate, 0.1% SDS, 0.5 mM Na3VO4 plus freshly added PMSF and protease inhibitor cocktail; Boeringer-Roche), and then 20 μg of lysate protein (per lane) were analyzed by SDS-10% PAGE and Western blot analysis. Antibody concentrations used were: anti-phospho-NF-κB (1:1000) (Santa Cruz Biotechnology, Santa Cruz, Calif.), anti-phospho-Akt (1:5000) (Cell Signaling, CA), anti-cyclin D1 (1:1000) (Cell Signaling, CA), anti-BclXL (1:500) (Santa Cruz Biotechnology), anti-VEGF (1:500) (Santa Cruz Biotechnology), and anti-β-actin (1:1000) (Sigma, St. Louis, Mo.)."}, "BclXL": {"tested_on": "BclXL", "experiment": "Western blot of B16F10 cells, BclXL", "format": "cell-based, mouse", "conditions": "50 μM (FIG. 9)", "procedure": "as §1"}, "[2]": {"tested_on": "B16F10 mouse melanoma cells", "experiment": "Brain tumor formation (B16F10 cells injected into right front brain), tail vein curcumin", "format": "in vivo, C57BL mouse", "procedure": "Generation of Tumors. The mice were given food and water ad libitum and subjected to 12 hour dark/12 hour light cycles. To generate brain tumors in mice, B16F10 mouse melanoma cells or GL261 mouse glioma cells (1000 cells in 5 μl PBS per C57BL mouse) were injected into the right front brain [coordinates: with respect to the Bregma (in mm) AP=2.5; L=−1.1; D=1.5] at the rate of 1 μl per minute using a stereotaxic set-up (KDS Model 310plus infusion-withdrawal syringe pump) (Paxinos, G., and Franklin, K. B. J., The mouse brain in stereotaxic coordinates. 2nd ed. 2001, New York: Academic Press). Before the cell injection, the mouse was anesthetized by injecting (sc) xylazine (10 mg/Kg) and ketamine (100 mg/Kg), the head was shaved, and then the head was immobilized on a Stoelting sterotaxic frame. The mouse was determined to be in deep anesthesia by checking for regular, relaxed respiration and the lack of response to tail/toe pinch before its head was immobilized. The head was cleaned with 70% ethanol and then, using a sterile scalpel, a midline incision was made and subcutaneous muscle and fascia retracted to expose the skull. A hole was made in the skull with a dental drill and the cells injected as described above using a Hamilton syringe fitted to the syringe pump. Under the described condition of anesthesia, the mouse remains unconscious for about 90 min. The total time taken for immobilization of the mouse, exposure of the skull, and injection was about 30 min. Thus, the total time required from the injection of anesthetics to the completion of surgery was less than one hour. After the injection, the hole in the skull was sealed with sterile bone wax and the skin and muscle placed back in place with appropriate 7-mm stainless steel clips (Reflex Skin closure system; Cellpoint Scientific). For wound healing, a topical antibiotic (Triple Antibiotic, containing Polymyxin B, Bacitracin, and Neomycin) was applied and for post-operative care the animal was kept in a warm blanket at 35-37° C. taking precautions to avoid thermal injury. On the first day after surgery (day 2), a sterile, 37° C. solution of physiologic saline was administered (IP) at the dose of 1 ml/100 g body weight. The animals were then caged individually with access to food and water and kept under close monitoring. The mice also received acetaminophen (Tylenol syrup) 1 mg/ml in drinking water daily until they returned to complete normalcy in terms of both behavior and appearance (body weight; reduced locomotion, vocalization, lack of grooming, wound scratching; and signs inflammation at the surgical site).\nCurcumin Treatment. The control mice received, aseptically, the carrier (3% DMSO in 200 μl PBS) daily from the next day (day 2), through the tail vein after placing the mouse in a restraining cage without anesthetics. Other mice similarly received 667 μM curcumin in 200 μl of PBS containing 3% DMSO daily from the next day (day 2) for 18 days (through day 19) through the tail vein. Other mice received the same curcumin solution daily from day 4, day 6, day 8 or day 10. One mouse (designated Mouse 2) received a single dose of curcumin (5 μl of 667 μM solution) five minutes after injection of B16F10 cells into the brain, using the same stereotaxic set-up.\nMonitoring and Sample Preparation. The effects of brain tumor on movement generally appeared in about two to three weeks. The mice were monitored for disorders in movement using an open field VIDEO monitoring set up (10 min per mouse). Blood was collected from the saphenous vein to test for markers for cancer and cell and organ damage. Additionally, MRI was performed on the mice to monitor the growth and progression of brain tumors. […]"}, "melanoma cell lines": {"tested_on": "melanoma cell lines", "conditions": "melanoma cell lines (Siwak et al. 2005); cited from earlier work"}}, "data": [{"molecule": "COc1cc(/C=C/C(=O)CC(=O)/C=C/c2ccc(O)c(OC)c2)ccc1O", "note": "[curcumin]", "values": [{"measurement": "condition of mice after treatment", "setting": "[1]; even after the curcumin injection had been discontinued for 18 days, carrier mice died in about a month", "value": "remained normal indefinitely"}, {"measurement": "outward sign of tumor or lesion", "setting": "[1]; male and female C57BL mice, B16F10 cells in neck, 667 curcumin in 200 μl PBS 3% DMSO daily, tail vein", "value": "no outward sign of tumor or lesion"}, {"measurement": "cyclin D1 levels (Western blot)", "setting": "cyclin D1; active cell division (first 48 h)", "value": "decrease"}, {"measurement": "cyclin D1 inhibition (Western blot)", "setting": "cyclin D1; subsequently, when cell division had slowed down", "value": "not observed"}, {"measurement": "BclXL (Western blot)", "setting": "BclXL", "value": "suppression"}, {"measurement": "brain tumor formation and morbidity", "setting": "[2]; B16F10 cells in right frontal lobe, 200 μl of 667 μM curcumin daily, tail vein, day 2 to day 19", "value": "blocked"}, {"measurement": "tissue disintegration (hematoxylin and eosin staining of brain tissue)", "setting": "[2]; curcumin-injected mice (FIG. 8B)", "value": "completely blocked"}, {"measurement": "movement", "setting": "[2]; daily curcumin injections, day 20", "value": "normal movement"}, {"measurement": "movement and behavior", "setting": "[2]; daily curcumin injections, days 21, 28, and 39", "value": "normal movement and behavior"}, {"measurement": "tumors in the right frontal lobe", "setting": "[2]; single dose (5 μl of 667 μM, into brain five minutes after B16F10 cells; Mouse 2)", "value": "Large tumors were observed"}, {"measurement": "condition of mouse", "setting": "[2]; single dose (5 μl of 667 μM, into brain five minutes after B16F10 cells; Mouse 2), day 21", "value": "hunched up and morbid"}, {"measurement": "apoptosis", "setting": "melanoma cell lines", "value": "induces apoptosis"}]}]}
